The experiment concerns TNF-α. Description: TNF-α ELISA with culture of LPS-stimulated PBMC-derived monocytes. The format is cell-based, human. Particulars: monocytes stimulated with LPS 10 ng/ml 2 hrs, starved 1 hr, 4 uM treated for 2 hrs, cell culture medium. As for the experimental part: PBMC (peripheral blood mononuclear cell) was separated from the blood samples (50 ml) collected from healthy subjects using Ficoll-Paque™ PLUS (GE Healthcare Life Sciences, Piscataway, N.J., USA). PBMCs were then enriched in complete RPMI 1640 medium containing 20% of human serum, followed by transferring to 100 mm polystyrene cell culture plate coated with human serum for 30 mins. […]
To investigate the effect of PEP-1 on TNF-α level in terms of protein expression level, ELISA (enzyme linked immunosorbent assay) was performed. […] After culturing, cell soup was collected, and the amount of TNF-α was measured using ELISA kit (R&D, Minneapolis, Minn., USA) as follows.
TNF measurement uses sandwich ELISA method. […] Again, plate was washed, and avidin/biotin was added for measuring the absorbance. TNF-α level of each sample was quantified using the standard graph calculated from the absorbance of standard solution.
PBMC-derived monocytes were stimulated with endotoxin LPS (10 ng/ml) for 2 hrs, starved for 1 hr using OPTI-MEM, and then 4 uM of FITC, FITC-TAT, PEP 1-FITC and FITC-PEP 1 were treated for 2 hrs. After incubation, TNF-α level was measured with cell culture medium using ELISA.

Turning to Fluorescein Isothiocyanate [FITC], the TNF-α level amounted to 6.2 ng/mL.

The values above are taken from patent publication US9907837B2, “Composition for preventing or treating cachexia” (GemVax & KAEL Co., Ltd., priority 2012, dated 2018).
